Entries after “also recorded” stand apart in the source; their conditions may differ.
Columns and labels:
[1] = system: EAE (MOG35-55 immunized mice); assay: EAE, late treatment initiated at day 28 post-immunization, clinical scoring; format: in vivo, C57BL/6J mice
Method: (§1) Active EAE was induced in 8-12 wk-old female C57BL/6J mice that had been allowed to acclimatize to the animal facility for at least 1 wk. MOG35-55 peptide dissolved in PBS at a concentration of 2 mg/mL was mixed 1:1 with complete Freund's adjuvant to make an emulsion. On day 0, mice were immunized by injecting 50 μL of the emulsion s.c. into each of two sites on the lateral abdomen. In addition, on day 0 and again on day 2, mice were injected intraperitoneally with 250 ng pertussis toxin. Mice were weighed and scored beginning on day 7 post-immunization. Scoring was performed in a blinded manner according to the following scale:
(§2) Bryo-1 was prepared by initially dissolving in 100% ethanol and then further diluting to 20% ethanol and 1% DMSO in PBS. The final concentration of bryo-1 was […] Mice were treated by i.p. injection of […] bryo-1 or an equal volume of vehicle control (20% ethanol and 1% DMSO in PBS) 3 d per week (Monday, Wednesday, Friday).
In a third set of experiments, mice were randomized and treatment was begun on day 28 post-immunization, more than 10 d after peak disease and once motor deficits had reached a stable plateau.
In another set of mice, to determine whether bryo-1 could reverse established neurologic deficits in EAE, mice were randomized and began treatment on day 28 post-immunization, more than 10 d after peak disease and once motor deficits had reached a stable plateau (FIG. 2C). […] Treatment was continued for just more than 3 wk and discontinued on day 51 post-immunization.

[2] = system: corpus callosum, LPC demyelination; assay: Lysolecithin (LPC)-induced demyelination, MBP staining; format: in vivo, C57BL/6J mice; conditions: 30 μg/kg IP at 3, 5, 7 and 9 dpl, assessed at 10 dpl
Method: To evaluate the impact of systemic treatment with bryo-1 on physiologic demyelination in vivo, we conducted a lysolecithin (LPC)-induced demyelination animal study. LPC was stereotactically injected into the corpus callosum of 12-week old C57BL/6J mice. Bryo-1 (30 μg/kg) or vehicle was injected IP at 3, 5, 7, and 9 dpl followed by immunofluorescent assessment of MBP expression at 10 dpl.

neurospheres = assay: Neurospheres, staining for oligodendrocyte marker; format: cell-based; conditions: 20 nM every other day for 1 week
Excerpt: We examined the effect of bryo-1 on neurospheres, which are neural stem cell-like cells.

[3] = phase 2 clinical trials in humans; cited from earlier work
[4] = system: EAE (MOG35-55 immunized mice); assay: EAE, treatment initiated at clinical score of 1.0, clinical scoring; format: in vivo, C57BL/6J mice
Method: as §1, §2
In a second set of experiments, mice were randomized and treatment was begun when the mice reached a clinical score of 1.0 (corresponding to tail paralysis). In this paradigm, mice received their first treatment on the day they reached a score of 1.0, and subsequently were returned to a 3 d/week schedule in sync with the other animals.
The effects of bryo-1 in two distinct therapeutic paradigms were analyzed. In both paradigms, treatments began after the onset of EAE, but the start of the treatments occurred at two different stages of the disease. In the first set of experiments, mice were randomized and treatment was initiated at the first clinical sign of motor weakness, corresponding to tail paralysis (FIG. 2A).

[5] = system: corpus callosum remyelination; assay: Cuprizone-induced demyelination, Black-Gold II myelin staining; format: in vivo, C57BL/6J mice; conditions: 30 μg/kg IP every other day from re-feeding, day 8 after re-feeding
Method: Cuprizone-induced demyelination was elicited as described by Baxi et al., Glia (2017) 65:2087-098, with minor modification. Female C57BL/6J mice (8 weeks old) were fed 0.2% cuprizone for 5 weeks to induce demyelination of the corpus callosum and then returned to normal feed. The mice (n=2 per group) were then treated with either bryo-1 (30 μg/kg) or vehicle by IP injection every other day beginning on the first day of re-feeding with normal feed, and the extent of corpus callosum remyelination was assessed by Black-Gold II myelin staining on day 8 after re-feeding.

[6] = system: CD4+, Th1 and Th17 lymphocytes in EAE mice; assay: Flow cytometry of lymph node, spleen, brain and spinal cord in EAE mice, prevention paradigm; format: in vivo, C57BL/6J mice
Method: Mice were killed with pentobarbital and perfused via cardiac puncture with ice-cold HBSS without cations. Brain, spinal cord (collected using hydrostatic pressure), spleen, and lymph node tissue were isolated after perfusion and were mechanically dissociated by passing through 100-μm cell strainers. For CNS tissue, after dissociation, infiltrating mononuclear cells were separated from myelin debris using a 37/70% percoll gradient. After dissociation, spleens were incubated in ACK lysis buffer to remove red blood cell contamination. Cells were counted using a MACSQuant flow cytometer (Miltenyi Biotec).
For surface marker and intracellular cytokine staining of T cells, the cells were first restimulated with a cell stimulation mixture with protein transport inhibitors (eBioscience, catalog #00-4975-03) for 4 h in cRPMI at 37° C. They then underwent live/dead and surface marker staining as earlier. For intracellular cytokine staining, cells were permeabilized and fixed using either IC Fixation buffer for cytokine analysis (eBioscience, 00-8222-49) or FoxP3 fixation/permeabilization buffer for transcription factor analysis (eBioscience, 00-5521-00) after manufacturer recommended protocol and incubated with specific conjugated antibodies for the specified proteins in permeabilization buffer for 1 h.
Cells were analyzed by flow cytometry using a MACSQuant flow cytometer (Miltenyi Biotec). Flow data analysis was performed in FlowJo (FlowJo) or FlowLogic (Inivai).
EAE was elicited by immunizing 8-12-wk-old C57BL/6J mice with MOG35-55. Neurologic symptoms of EAE were most evident 10-14 d after MOG immunization, peaking at about 16 d and then plateauing with slight diminution until 21 d. Mice were treated with bryo-1 (30 μg/kg) or vehicle by i.p. injection 3 d per week.

[7] = brain and spinal cord, peak disease (day 14)
[8] = lymph nodes, 8 d after immunization, prevention paradigm
[9] = lymph nodes, day 8, prevention paradigm
[10] = peak disease (day 14), prophylactic treatment
[11] = spleen, day 8, prevention paradigm

CCC/C=C/C=C/C(=O)OC1/C(=C/C(=O)OC)CC2CC(C(C)O)OC(=O)CC(O)CC3CC(OC(C)=O)C(C)(C)C(O)(CC4C/C(=C/C(=O)OC)CC(/C=C/C(C)(C)C1(O)O2)O4)O3 (stereo not drawn) [bryo-1, Bryostatin-1]
clinical scores after discontinuation vs vehicle-treated group ([1]; after discontinuation at day 51, followed through day 71): remained significantly lower; also recorded: remained below those of vehicle-treated mice
clinical scores throughout the treatment period and for several days after discontinuation ([1]; treatment day 28 to day 51 post-immunization): steadily improved
time after discontinuing at which neurologic deficits worsened ([1]; treatment discontinued on day 51 post-immunization): approximately 1 wk
time to improvement after treatment initiation ([1]; treatment started day 28 post-immunization): within a week of treatment initiation
established motor deficits ([1]; treatment started day 28 post-immunization, 30 μg/kg i.p. 3 d per week): reversed motor deficits
rate of oligodendrogenesis (MBP staining) [2]: appears to have increased the rate of oligodendrogenesis
expression of the oligodendrocyte marker 04 (neurospheres): increased expression
safety profile [3]: favorable safety profile
motor deficits and subsequent course of EAE ([4]; 30 μg/kg i.p. 3 d per week, started at first clinical sign (tail paralysis, score 1.0)): substantially attenuated
peak clinical score vs vehicle-treated mice ([4]; treatment started at score 1.0): lower peak clinical score
recovery vs vehicle-treated mice ([4]; treatment started at score 1.0): faster recovery
rate of remyelination (extent of Black-Gold II staining) [5]: increased the rate of remyelination
percentage of infiltrating CD4+ lymphocytes expressing IL17 [6, 7]: unchanged
proportion of infiltrating CD4+ lymphocytes producing IFNγ [6, 7]: decreased proportion
numbers of Th1 (CD4+; IFNγ+) lymphocytes in lymph nodes [6, 8]: significantly decreased numbers
numbers of Th17 (CD4+; IL17+) lymphocytes in lymph nodes [6, 8]: significantly decreased numbers
numbers of total CD4+ (CD3+; CD4+) lymphocytes in lymph nodes [6, 8]: significantly decreased numbers
proportion of Th1 cells among CD4+ lymphocytes [6, 9]: significantly lower proportion
proportion of Th17 cells among CD4+ lymphocytes [6, 9]: insignificant decrease
infiltration of CD4+ lymphocytes into the brain [6, 10]: diminished infiltration
infiltration of CD4+ lymphocytes into the spinal cord [6, 10]: diminished infiltration
numbers of Th1 lymphocytes in spleen [6, 11]: significantly decreased numbers
numbers of Th17 cells in spleen [6, 11]: trend toward decreased
numbers of total CD4+ lymphocytes in spleen [6, 11]: significantly decreased numbers
